Laboratory results reported in patent publication US10689394B2, “Thieno[2,3-b]pyridine derivative, quinoline derivative, and use thereof” (The University of Tokyo, priority 2016, dated 2020).

Target: T1, binding between ALS-related mutant SOD1 (Flag-SOD1 G93A) and Derlin-1 (Derlin-1-HA) (Homo sapiens, UniProt P00441+Q9BUN8, G94A)
T1 construct: expressed in transfected cells; host or cells: HEK293A
Experiment: Cell-based co-immunoprecipitation assay of mutant SOD1 (G93A)-Derlin-1 binding
Parameters: key to Activity value (score): a compound exhibiting no inhibitory activity is set at 0; a compound exhibiting inhibitory activity is set at 1; a compound exhibiting significant inhibitory activity is set at 2; a compound having higher inhibitory activity than the compound of Example 1 is set at 3
Details: assay concentration 20 μM; HEK293A cells overexpressing Flag-SOD1 G93A and Derlin-1-HA
Procedure: As cells, human embryonic kidney-derived, Human Embryonic Kidney 293A (HEK293A) cells were used. The cells were cultured in High Glucose Dulbecco's modified Eagle's medium (DMEM: 4.5 mg/ml glucose, Sigma) supplemented with complement-inactivated 10% fetal bovine serum (FBS, Vitromex) and 100 units/mL Penicillin G (Meiji), which was placed in an incubator set at conditions of 37° C. and 5% CO2.
Transfection into the HEK293A cells was carried out using PEI-Max (Polyscience) at a ratio of 3 μL of PEI-Max to 1 μg of plasmid. DMEM was mixed with PEI-Max, and the mixture was then left at rest for 5 minutes. Thereafter, the reaction mixture was added to the plasmid DNA dissolved in DMEM, and the thus obtained mixture was further left at rest for 15 minutes. After seeding, the culture was carried out for 12 to 24 hours, and the resultant was then added to a culture medium of cells, in which the medium had been exchanged with DMEM supplemented only with 10% FBS.
pcDNA3.0-Derlin-1-HA, pcDNA3.0-Flag-SOD1 G93A, and 123 types of other mutants.
In the lysis of HEK293A cells for use in a co-immunoprecipitation experiment, an IP lysis buffer (20 mM Tris-HCl (pH 7.5), 150 mM NaCl, 10 mM EDTA (pH 8.0), 1% Triton-X 100, 5 μg/mL leupeptin, and 1 mM phenylmethylsulfonyl fluoride) was used.
After the transfection on a 24-well plate, the cells were cultured for 12 hours or 24 hours, and the obtained cell culture was exchanged with 200 μL of medium. Thereafter, 1% DMSO or various types of compounds having each different concentration were added into the culture. Thirty-six hours or twenty-four hours later, the cells were incubated in the IP lysis buffer (300 μL/well) at 4° C. for 25 minutes, so that the cells were lysed. The cell lysate was centrifuged at 4° C. at 15000 rpm for 10 minutes, and a supernatant was then recovered. To this supernatant, Anti-Flag M2 affinity gel was added in a liquid amount of 20 μL, and they were allowed to react with each other by subjecting the obtained mixture to inversion mixing at 4° C. for 25 minutes. After completion of the reaction, a supernatant was removed, and the residue was washed twice with High salt wash buffer (1% Triton X 100, 500 mM NaCl, 20 mM Tris-HCl (pH 7.5), and 5 mM EGTA), and was then washed once with Low salt wash buffer (150 mM NaCl, 20 mM Tris-HCl (pH 7.5), and 5 mM EGTA). Finally, 50 μL of a 2×SDS sample buffer was added to the resultant, and the obtained mixture was then boiled at 98° C. for 3 minutes to obtain an SDS-PAGE sample. Regarding the lysate, a 2×SDS sample buffer was added in an amount equal to the supernatant, and the obtained mixture was then boiled at 98° C. for 3 minutes to obtain an SDS-PAGE sample.
After completion of SDS-PAGE, a protein was transferred from the gel into a polyvinylidene difluoride membrane (PVDF) ([…], Pall), and was then blocked with TBS-T (150 mM NaCl, 50 mM Tris-HCl (pH 8.0), and 0.05% Tween 20) supplemented with 5% skimmed milk at room temperature for 2 hours or more. Thereafter, a primary antibody diluted with TBS-T supplemented with 5% bovine serum albumin and 0.1% NaN3 was allowed to bind to each molecule on the PVDF membrane at 4° C. for 12 hours or more. After completion of the reaction, a secondary antibody (HRP-linked 2nd antibody) diluted with TBS-T supplemented with 5% skimmed milk was allowed to bind to the primary antibody at room temperature for 1 hour. Thereafter, the resultant was washed with TBS-T for 15 minutes, 3 or more times, and detection was then carried out using an enhanced chemiluminescence (ECL) system.
With regard to the compounds of the present invention (Example Compound 1 to Example Compound 47), whether or not the present compound can inhibit the binding between ALS-related mutant SOD1 and Derlin-1 in a cell by being added into a cell culture solution was examined according to a co-immunoprecipitation experiment. […]

T1 sequence (P00441 whole entry G94A, species assumed): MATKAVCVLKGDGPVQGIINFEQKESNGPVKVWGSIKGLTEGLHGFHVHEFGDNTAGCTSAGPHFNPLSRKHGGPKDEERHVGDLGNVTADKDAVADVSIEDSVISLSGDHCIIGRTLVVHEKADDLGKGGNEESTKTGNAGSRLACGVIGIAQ
T1 sequence (Q9BUN8 whole entry, species assumed, stated change not applied): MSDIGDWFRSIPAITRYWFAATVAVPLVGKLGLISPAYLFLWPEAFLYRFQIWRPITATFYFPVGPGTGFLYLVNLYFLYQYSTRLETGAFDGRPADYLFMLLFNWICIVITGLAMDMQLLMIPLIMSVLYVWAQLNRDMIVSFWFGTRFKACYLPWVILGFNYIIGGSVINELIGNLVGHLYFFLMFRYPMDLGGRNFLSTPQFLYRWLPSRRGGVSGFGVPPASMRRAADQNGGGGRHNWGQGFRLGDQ

Activity value (score): 2
SMILES: C#CCN(C(=O)c1sc2nc(-c3cccnc3)ccc2c1N)c1ccccc1 [Example 2, N-propargyl-3-amino-N-phenyl-6-(3-pyridinyl)thieno[2,3-b]pyridine-2-carboxamide]
